In patent US6417159B1 (Queen's University at Kingston, priority 1996, dated 2002):
“Also recorded” adds a separate entry of the source.

Legend:
ED8 chick DRG neurons = experiment: NGF-mediated neurite growth by ED8 chick DRG sensory neurons; type: cell-based
PC12^nnr5 cells [1] = experiment: NGF-mediated neurite growth by PC12nnr5 cells; type: cell-based, rat; details: absence or presence of R3 peptide
Description: (§1) PC12 cells or PC12^nnr5 cells (Loeb et al., 1991) were seeded on poly-D-lysine-coated (0.1 mg·ml^−1, overnight) 96-well microculture dishes (Falcon) at approximately 800 cells per well with RPMI with 10% fetal calf serum. Peptides were added to replicate wells 48 hours before, or at the time of, addition of NGF. NGF was prepared by the method of Mobley et al. (1976) and used at 1-2 nM. Other additives were diluted at least 100-fold and added to the wells as described. At various times following incubation at 37° C., 5% CO2, wells were scored for neurite-bearing cells by serial counting of representative circumferences of each well.
(§2) A Leitz Diavert inverted microscope with phase optics was used to score neurite growth. For both PC12 cells and sensory neurons, a neurite was scored as such if its calibre from origin to terminal was approximately the same and the length was equal to or greater than 1.5 cell body diameters.

ciliary neurons = experiment: CNTF survival effect on ciliary neurons; type: cell-based
PC12 cells [2] = experiment: NGF-mediated neurite growth by PC12 cells; type: cell-based, rat
Description: as §1, §2

[3] = system: embryonic 19 day rat DRG neurons; experiment: NGF-mediated neurite growth by ED19 rat DRG neurons; type: cell-based
Description: Dissociated cells enriched for sensory neurons from DRG of ED8 chick or ED19 rat were prepared as described in detail previously (Sutter et al., 1979a). ED19 rat DRG dissociates were not pre-plated pror to bioassay. Cells were seeded into wells of Terasaki plates previously treated with poly-D-lysine at 700-900 per well in supplemented Ham's F12 medium with 2.5% fetal calf serum and NGF at concentrations between 0.04 and 40 pM. The cells were incubated with the additives as described at 37° C., 5% CO2, and scored at various times for neurite growth by counting all cells on the lower horizontal surface of the wells, which is approximately 15% of the surface area of the top of the tapered wells.
as §2

PC12^nnr5 cells [4] = experiment: Acid phosphatase assay of cell survival, PC12nnr5 cells; type: cell-based, rat; details: PC12nnr5 (low-TrkA), serum-free conditions
Description: This is a colorimetric assay which measures the lysosomal enzyme acid phosphatase to determine cell number (Connolly et al., 1986) modified by Ueda et al. (1994) for use with cultured neuronal cells. Medium was removed gently from PC12 or PC12^nnr5 cells cultured in 96 well plates and well were washed once with 200 μl PBS. Then 100 μl of buffer containing 0.1M sodium acetate pH 5.5, 0.1% TRITON™ X-100, and 10 mM p-nitrophenyl phosphate (Sigma 104 phosphatase substrate) was added to each well. Plates were placed in a 37° C., 5% CO2 incubator for 3 hours. The reaction was stopped by the addition of 10 μl/well of 1N sodium hydroxide and the colour development measured at 405 nm using a microplate reader (Titertek). The first column on each plate contained no cells (buffer only) and was used as a blank. The relationship between cell number and enzyme activity was linear over the range 1000 to 15,000 cells.
To exclude the possibility that the effects of R3 on neurite growth in the experiments described above were indirect and mediated by an influence on cell survival, PC12 and PC12^nnr5 cells were exposed to serum free conditions in the absence and presences of NGF, and in the absence and presence of R3. […] Nor was there any difference in NGF-mediated survival whether R3 exposure occurred before or at the same time as NGF exposure. […]

TrkA = experiment: NGF-mediated TrkA tyrosine phosphorylation in PC12 cells; type: cell-based, rat; details: prior to or at the time of NGF exposure
Description: FIG. 7B illustrates the influence of peptide R3 on TrkA phosphorylation. PC12 cells were treated with R3 for 30 min or 24 h and suspended in HKR buffer at a concentration of 10^7·ml^−1. NGF (50 ng·ml^−1) was added where indicated and samples incubated for 15 min at 37° C. Cells were subsequently harvested by centrifugation and the pellets dissolved in lysis buffer and immunoprecipitated for TrkA as described. Immunoprecipitated proteins were separated using 7.5% polyacrylamide gels (Laemmli) and transblotted to PVDF membrane. The membrane was processed for anti-phosphotyrosine with HRP-conjugated antibody RC-20 as described by the manufacture's literature (Transduction Laboratories Ltd.).
TrkA phosphorylation was performed by a modification of the method of Kaplan et al. (1991 a and b). PC12 cells were harvested as described and suspended at a concentration of 10^7 ml in HKR buffer. NGF (100 ng·ml^−1) was added and the cell suspension was incubated for 30 min at 37° C. and pelleted at 4° C. The cells were solublized with lysis buffer, and TrkA protein was immunoprecipitated as described. Proteins were fractionated by 7.5% SDS-PAGE, and transferred to nitrocellulose for immunoblot analysis as described (Harlow and Lane, 1988). Phosphoproteins were visualized using anti-phosphotyrosine clone 4G10 (UBI) as described in the supplier's product literature.

PC12 cells [5] = experiment: Basic fibroblast growth factor-mediated neurite growth by PC12 cells; type: cell-based, rat
PC12 cells [6] = experiment: Binding of [125I]NGF to PC12 cells; design: species or system rat; details: co-incubated with [125I]NGF
Description: PC12 cells were removed from culture dishes with CMF, washed, and incubated at a concentration of 10^6 per ml in Hepes-Krebs-Ringer (HKR) buffer buffer with 1 mg·ml^−1 BSA for 90 minutes at 37° C. in the presence of 40 pM [^125I]NGF in the absence and presence of excess unlabeled NGF, and in the absence and presence of R3 peptide. Aliquots of 100 μl were removed in replicates and mircocentrifuged at 10,000×g for 1 minute. Supernatants were removed, tips were cut from the microcentrifuge tube and counted in a gamma counter. Specific binding was defined as the difference between binding of the ligand in the absence and presence of unlabeled NGF, and fractional specific binding in the absence and presence of R3 peptide was compared. Studies of [^125I]NGF uptake into PC12 and PC12^nnr5 cells were carried out in the absence and presence of 10 μM R3 peptide and following a 24-hour exposure of PC12 cultures to 10 μM R3 peptide. Cells were eposed to 20 pM or 0.2 nM [^125I]NGF for periods of time up to 240 minutes (steady state) at 37° C. The cells were then briefly acid-washed as described by Bernd and Greene (1984), and aliquots were prepared for gamma counting as described. NGF was radioiodinated as described in Sutter et al. (1979b).

Sequence: LDALLAALRRIQR [R3]
- % of Control Response DRG (ED8 chick DRG neurons; (peptide with NGF − NGF alone)/(R3 with NGF − NGF alone) ×100, scored at 43, 44 and 48 hours, M ± SEM, n = 3 assays): 100 ± 16%
- Effect on NGF-mediated neurite growth, co-incubation, in words (ED8 chick DRG neurons; ED8 chick DRG neurons, 10 μM R3): enhancing effect; also recorded: markedly increased the response to NGF between 4 and 8 hours
- Neurite growth in PC12nnr5 cells with NGF, in words (PC12^nnr5 cells [1]): no effects on neurite growth
- Influence on survival effect of CNTF on ciliary neurons, in words (ciliary neurons): no influence
- Effect of R3 on enhancement of NGF-mediated neurite growth in presence of Mg2+, in words (PC12 cells [2]; 10 mM Mg^+2): inhibited completely
- Neurite growth-enhancing effect of R3 in presence of pertussis toxin, in words (PC12 cells [2]; PC12 cells pre-treated with pertussis toxin): did not influence
- Effect on NGF-mediated neurite growth, co-incubation, in words (PC12 cells [2]; PC12 cells, peptide co-incubated with NGF): enhanced temporally the neurite growth response
- Time of maximal effect on NGF-mediated neurite growth (PC12 cells [2]; all concentrations of R3): 40 to 48 h
- Effect on neurite growth response to NGF, pre-incubation, in words (PC12 cells [2]; peptide present 24 or 48 hours prior to addition of NGF): inhibited transiently
- Effect on NGF-mediated neurite growth, co-incubation, in words [3]: enhancing effect
- Influence on NGF-mediated cell survival, in words (PC12^nnr5 cells [4]): no influence on NGF-mediated survival
- Influence on NGF-mediated tyrosine phosphorylation of TrkA, in words (TrkA): did not consistently influence
- Influence on basic fibroblast growth factor-mediated neurite growth, in words (PC12 cells [5]): no influence
- Effect on [125I]NGF binding, in words (PC12 cells [6]): no effect on steady-state total or non-displaceable binding
